We go through 56 compounds from patent US7705038B2, “Control of parasites in animals by the use of parasiticidal 2-phenyl-3-(1H-pyrrol-2-yl)acrylonitrile derivatives” (Intervet, Inc., priority 2004, dated 2010).

What is called EC99 is the concentration at which the effect reaches the 99% level. High values mean a need for much substance, low ones an effect from little substance.

Data set [1] deals with Haemonchus contortus. Put plainly: Activity against Haemonchus contortus (LD99). The following applies: dose required to kill 99% of the sample of Haemonchus contortus. From the text:
(§1) Exemplified compounds of Formula 1 are listed by Tables 1a and 1b, above. The activity of these compounds against Haemonchus contortus and cat fleas (Ctenocephalides felis) is summarized by Table 7, below.
The LD99 value is the dose, expressed as μg/ml, that was required to kill 99% of the sample of Haemonchus contortus.

For data set [2], the system named is cat fleas (Ctenocephalides felis). In words: Contact activity against cat fleas (LC50, % kill). The following applies: for % Kill: percent of a sample of cat fleas killed at a concentration of 1.26 μg/cm^2; for pest or weed control at 1.26 µg/cm2, 1.26 µg/cm2: Ctenocephalides felis, read-out: % Kill; for LC50: concentration required to kill 50% of the sample of cat fleas on contact.
Source text: as §1

In turn, `N#C/C(=C\c1ccc[nH]1)c1cccc(Cl)c1` [Compound 1] gave an LD99 in data set [1] of 0.75 µg/mL. In data set [2], the “% Kill” value is 28%.
Turning to `N#C/C(=C\c1ccc[nH]1)c1ccc(Cl)cc1` [Compound 2, (Z)-2-(4-Chloro-phenyl)-3-(1H-pyrrol-2-yl)acrylonitrile], the EC99 in data set [1] stood at 0.406 µg/mL. Moreover, in data set [2], the pest or weed control at 1.26 µg/cm2, 1.26 µg/cm2 was found to be 95% and the LC50 came out at 0.17 μg/cm^2.
Regarding `N#C/C(=C\c1cc(Cl)c(Cl)[nH]1)c1ccc(Cl)cc1` [Compound 3], the LD99 in data set [1] was determined as 3 µg/mL. In addition, in data set [2], the “% Kill” value is reported as 15%.
The like results for `N#C/C(=C\c1ccc[nH]1)c1ccc(C(F)(F)F)cc1` [Compound 4] were, in that order, 0.625 µg/mL and 20%.
On to `Cn1cccc1/C=C(\C#N)c1cccc(Cl)c1` [Compound 5], for which, in data set [1], the LD99 came out at 3 µg/mL. The “% Kill” value in data set [2] turned out to be 6%.
`Cn1cccc1/C=C(\C#N)c1ccc(Cl)cc1` [Compound 6, (Z)-2-(4-Chloro-phenyl)-3-(1-methyl-1H-pyrrol-2-yl)acrylonitrile]: it took 1.88 µg/mL to reach the 99% level in data set [1] (EC99). In addition, the pest or weed control at 1.26 µg/cm2, 1.26 µg/cm2 in data set [2] came out at 13%.
For `CCOCn1cccc1/C=C(\C#N)c1ccc(Cl)cc1` [Compound 7, (Z)-2-(4-Chloro-phenyl)-3-(1-ethoxymethyl-1H-pyrrol-2-yl)acrylonitrile] the same measures were 5.5 µg/mL and 6%.
In data set [1], `CCOCn1cccc1/C=C(\C#N)c1ccc(C(F)(F)F)cc1` [Compound 8] had an LD99 of 5 µg/mL. The “% Kill” value in data set [2] worked out at 6%.
Compound `N#C/C(=C\c1ccc[nH]1)c1cccc(C(F)(F)F)c1` [Compound 9] had an LD99 in data set [1] of 0.938 µg/mL. Also, in data set [2], the LC50 was 9.94 μg/cm^2 and the “% Kill” value is reported as 56%.
The like results for `N#C/C(=C\c1ccc[nH]1)c1cccc(F)c1` [Compound 10] were, in that order, 1.625 µg/mL, 0.78 μg/cm^2 and 78%.
On to `N#C/C(=C\c1cc(Br)c[nH]1)c1ccc(C(F)(F)F)cc1` [Compound 11], for which the LD99 result in data set [1] is “— (the symbol ‘—’ indicates tested but inactive up to 15 μg/ml)”. In data set [2], the “% Kill” value was determined as 18%.
Turning to `N#C/C(=C\c1cc(Br)c[nH]1)c1cccc(C(F)(F)F)c1` [Compound 12], the LD99 in data set [1] amounted to 3.25 µg/mL.
Compound `N#C/C(=C\c1ccc[nH]1)c1ccc(Cl)cc1Cl` [Compound 13] registered an LD99 in data set [1] of 3 µg/mL. Further, in data set [2], the “% Kill” value was 8%.
As to `COc1ccc(/C(C#N)=C/c2ccc[nH]2)cc1` [Compound 14], in data set [1], the LD99 came to 1.5 µg/mL. Also, the “% Kill” value in data set [2] turned out to be 31%.
The compound `CC(C)(C)c1ccc(/C(C#N)=C/c2ccc[nH]2)cc1` [Compound 15] returned an LD99 in data set [1] of 3.25 µg/mL. In addition, in data set [2], the LC50 is on record as 0.478 μg/cm^2 and the “% Kill” value amounted to 87%.
Consider `Cc1ccccc1/C(C#N)=C/c1ccc[nH]1` [Compound 16, (Z)-2-(2-Methyl-phenyl)-3-(1H-pyrrol-2-yl)acrylonitrile], for which it took 3.75 µg/mL to reach the 99% level in data set [1] (EC99). Besides, in data set [2], the pest or weed control at 1.26 µg/cm2, 1.26 µg/cm2 amounted to 100% and the LC50 was determined as 0.076 μg/cm^2.
`N#C/C(=C\c1ccc[nH]1)c1ccccc1` [Compound 17] displayed an LD99 in data set [1] of 0.469 µg/mL. For the same compound, in data set [2], the LC50 is reported as 0.259 μg/cm^2 and the “% Kill” value is 98%.
For the compound `N#C/C(=C\c1ccc[nH]1)c1ccc(-c2ccccc2)cc1` [Compound 18], in data set [1], the LD99 worked out at 7.5 µg/mL. Moreover, the “% Kill” value in data set [2] is reported as 46%.
In data set [1], `N#C/C(=C\c1ccc[nH]1)c1ccc2c(c1)OCO2` [Compound 19, 2-(3,4-methylenedioxy)phenyl-3-(1H-pyrrol-2-yl)acrylonitrile] displayed an EC99 of 6 µg/mL. Also, in data set [2], the pest or weed control at 1.26 µg/cm2, 1.26 µg/cm2 turned out to be 26%.
`N#C/C(=C\c1ccc[nH]1)c1ccc(C#N)cc1` [Compound 20]: the LD99 in data set [1] turned out to be 10 µg/mL. Further, in data set [2], the “% Kill” value came out at 44%.
With `Cn1cccc1/C=C(\C#N)c1ccc(C(F)(F)F)cc1` [Compound 21], in data set [1], the LD99 entry is “— (the symbol ‘—’ indicates tested but inactive up to 15 μg/ml)”. In addition, the “% Kill” value in data set [2] was found to be 24%.
Compound `Cn1cccc1/C=C(\C#N)c1cccc(C(F)(F)F)c1` [Compound 22] returned an LD99 in data set [1] of 5.5 µg/mL. Further, the “% Kill” value in data set [2] is 19%.
For `N#C/C(=C\c1cc(Br)c[nH]1)c1ccc(Cl)cc1` [Compound 23] the same measures were 0.469 µg/mL and 23%.
On to `N#C/C(=C\c1ccc[nH]1)c1ccccc1Cl` [Compound 24], for which the LD99 in data set [1] stood at 2.75 µg/mL. In addition, in data set [2], the “% Kill” value is listed as 19%.
As to `N#C/C(=C\c1ccc[nH]1)c1ccccc1F` [Compound 25], the LD99 in data set [1] was found to be 2.5 µg/mL. In data set [2], the LC50 is on record as 0.594 μg/cm^2 and the “% Kill” value is 92%.
On to `Cc1ccc(/C(C#N)=C/c2ccc[nH]2)cc1` [Compound 26], for which, in data set [1], the LD99 came out at 0.938 µg/mL. Further, the “% Kill” value in data set [2] is recorded as 69%.
In data set [1], `N#C/C(=C\c1ccc[nH]1)c1ccc(Cl)c(Cl)c1` [Compound 27] showed an LD99 of 0.406 µg/mL. Also, in data set [2], the “% Kill” value amounted to 78%.
`N#C/C(=C\c1ccc[nH]1)c1ccc(F)cc1` [Compound 28] yielded an LD99 in data set [1] of 2.5 µg/mL. Besides, in data set [2], the LC50 was determined as 0.295 μg/cm^2 and the “% Kill” value was found to be 19%.
`N#C/C(=C\c1cc(Br)c[nH]1)c1ccc(Cl)c(Cl)c1` [Compound 29] registered an LD99 in data set [1] of 5 µg/mL. Besides, the “% Kill” value in data set [2] was 15%.
`N#C/C(=C\c1cc(Br)c[nH]1)c1ccc(F)cc1` [Compound 30] displayed an LD99 in data set [1] of 11 µg/mL. In addition, in data set [2], the “% Kill” value came to 18%.
`N#C/C(=C\c1cc(Br)c[nH]1)c1cccc(F)c1` [Compound 31]: the LD99 in data set [1] worked out at 1.75 µg/mL. Besides, the “% Kill” value in data set [2] is listed as 27%.
In data set [1], `N#C/C(=C\c1ccc[nH]1)c1cccc2ccccc12` [Compound 32, 2-(1-naphthyl)-3-(1H-pyrrol-2-yl)acrylonitrile] displayed an EC99 of 0.234 µg/mL. Also, in data set [2], the pest or weed control at 1.26 µg/cm2, 1.26 µg/cm2 is 42%.
Regarding `N#C/C(=C\c1ccc[nH]1)c1ccc(Br)cc1` [Compound 33], the LD99 in data set [1] came to 3 µg/mL. Further, the “% Kill” value in data set [2] is listed as 15%.
In data set [1], `N#CC(=Cc1cc(Br)c[nH]1)c1cccc2ccccc12` [Compound 34, 2-(1-naphthyl)-3-(4-bromo-1H-pyrrol-2-yl)acrylonitrile] registered an EC99 of 0.813 µg/mL. Further, the pest or weed control at 1.26 µg/cm2, 1.26 µg/cm2 in data set [2] stood at 21%.
As for `N#C/C(=C\c1ccc[nH]1)c1ccccc1` [Compound 35], in data set [1], the LD99 result was “— (the symbol ‘—’ indicates tested but inactive up to 15 μg/ml)”. Besides, the “% Kill” value in data set [2] is on record as 21%.
`N#C/C(=C\c1ccc[nH]1)c1ccc(I)cc1` [Compound 36] showed an LD99 in data set [1] of 0.688 µg/mL. Further, the “% Kill” value in data set [2] came out at 14%.
Regarding `N#C/C(=C\c1ccc[nH]1)c1ccccc1C#N` [Compound 37], in data set [1], the LD99 entry is “— (the symbol ‘—’ indicates tested but inactive up to 15 μg/ml)”. In data set [2], the “% Kill” value is on record as 11%.
In data set [1], `CCOCn1cccc1/C=C(\C#N)c1ccc(F)cc1` [Compound 49] showed an LD99 of 14 µg/mL.
`CCOCn1cccc1/C=C(\C#N)c1ccccc1C#N` [Compound 50]: in data set [1], the LD99 result was “— (the symbol ‘—’ indicates tested but inactive up to 15 μg/ml)”.
Compound `CCOCn1cccc1/C=C(\C#N)c1ccc(Br)cc1` [Compound 51] gave an LD99 in data set [1] of 7.5 µg/mL.
Take `CCOCn1cccc1/C=C(\C#N)c1c(Cl)cccc1Cl` [Compound 52]: the LD99 entry in data set [1] is “— (the symbol ‘—’ indicates tested but inactive up to 15 μg/ml)”.
`CCOCn1cccc1/C=C(\C#N)c1ccc2ccccc2c1` [Compound 53, 2-(2-naphthyl)-3-(1-ethoxymethyl-1H-pyrrol-2-yl)acrylonitrile]: in data set [1], the concentration for an effect of 99% (EC99) was more than 15 µg/mL.
In data set [1], `CCOCn1cccc1/C=C(\C#N)c1ccccc1Cl` [Compound 54] displayed an LD99 of 7 µg/mL.
Compound `CCOCn1cccc1/C=C(\C#N)c1ccc(Cl)c(Cl)c1` [Compound 56] gave an LD99 in data set [1] of 6.5 µg/mL.
As for `CCOCn1cccc1/C=C(\C#N)c1ccccc1C(F)(F)F` [Compound 57], in data set [1], the LD99 entry is “— (the symbol ‘—’ indicates tested but inactive up to 15 μg/ml)”.
With `CCOCn1cccc1/C=C(\C#N)c1cccc(Br)c1` [Compound 58], in data set [1], the LD99 result is “— (the symbol ‘—’ indicates tested but inactive up to 15 μg/ml)”.
As for `CCOCn1cccc1/C=C(\C#N)c1cc(C(F)(F)F)cc(C(F)(F)F)c1` [Compound 59], the LD99 entry in data set [1] was “— (the symbol ‘—’ indicates tested but inactive up to 15 μg/ml)”.
In the case of `CCOCn1cccc1/C=C(\C#N)c1c(F)cccc1F` [Compound 61], the LD99 result in data set [1] is “— (the symbol ‘—’ indicates tested but inactive up to 15 μg/ml)”.
As to `CCOCn1cccc1/C=C(\C#N)c1ccc(F)c(F)c1` [Compound 62], in data set [1], the LD99 was found to be 6 µg/mL.
Regarding `CCOCn1cccc1/C=C(\C#N)c1cccc(C)c1` [Compound 63], in data set [1], the LD99 was determined as 13 µg/mL.
In data set [1], `CCOCn1cccc1/C=C(\C#N)c1cccc2ccccc12` [Compound 65, 2-(1-naphthyl)-3-(1-ethoxymethyl-1H-pyrrol-2-yl)acrylonitrile] gave an EC99 of more than 15 µg/mL.
`CC(C)=CCn1cccc1/C=C(\C#N)c1ccc(Cl)cc1` [Compound 80, (Z)-2-(4-chlorophenyl)-3-(1-(3-methylbut-2-enyl)-1H-pyrrol-2-yl)acrylonitrile] displayed an EC99 in data set [1] of more than 15 µg/mL.
In the case of `Cc1ccc(S(=O)(=O)n2cccc2/C=C(\C#N)c2ccc(Cl)cc2)cc1` [Compound 83], the LD99 in data set [1] worked out at 12 µg/mL.
`N#C/C(=C\c1ccc[nH]1)c1ccccc1-c1ccccc1` [Compound 89]: the “% Kill” value in data set [2] came out at 2%.
The same measure, in the same setting: under `N#C/C(=C\c1ccc[nH]1)c1ccccc1C(F)(F)F` [Compound 90] stands 14%; under `COc1ccccc1/C(C#N)=C/c1ccc[nH]1` [Compound 91], 9%.
